The text below walks through data of patent publication US20250115571A1, “OXOPIPERAZINE DERIVATIVES” (Inthera Bioscience AG, priority 2017, published 2025).

Test [1] deals with PC3. Description: 9-day colony survival assay (CFA). The following applies: Homo sapiens, PC-3, 216 h, PC3 (prostate), read-out: GI50 (50% growth inhibition). The class given is cell-based.
Test [2] deals with A549. Briefly: 9-day colony survival assay (CFA). The following applies: Homo sapiens, 216 h, A549 (lung), read-out: GI50 (50% growth inhibition). The class given is cell-based.
In test [3] the test system is CaSki. Description: 9-day colony survival assay (CFA). The class given is cell-based. The following applies: Homo sapiens, Ca-Ski, 216 h, CaSki (cervix), read-out: GI50 (50% growth inhibition). The text has this:
Cell culture. CaSki cells (cervical cancer) were obtained from CLS GmbH, Eppelheim, Germany (cat #300145) and subcultured in ready-to-use RPMI1640 Media (CLS #820700) after addition of “Antibiotic Antimycotic Solution” (Sigma-Aldrich, St Louis, USA) at 1:100 dilution. The cells were expanded, and aliquots kept frozen in liquid nitrogen according to manufacturer's instructions; tested for mycoplasma contamination and genotyped (Microsynth AG, Balgach, Switzerland). Once thawed, aliquots were passaged every second or third day at a seed density of 20′000 cells/cm^2; and used for a maximum of twenty passages. For passaging, cell culture flasks were rinsed twice with Ca++/Mg++-free Phosphate-Buffered Saline (DPBS, CLS #860015) and incubated with Accutase (CLS #830100) for 15 min at 37° C. Cells were resuspended in a four-fold volume of ready-to-use RPMI, centrifuged at 300 g for ten minutes, the supernatant discarded and the cells resuspended in ready-to-use RPMI1640 by pipetting up and down five times with a serological pipette. Cell density was determined with a Via-1 Cassette (Chemometec, Allerod, Denmark) on a Nucleocounter NC 3000 (Chemometec). Where not stated, consumables and chemicals were purchased from well-known suppliers.
Preparation of the cells for CFA. Cell culture flasks were rinsed twice with DPBS and incubated with Accutase for 15 min at 37° C. Cells were resuspended in a four-fold volume of ready-to use RPMI, centrifuged at 300 g for ten minutes, the supernatant discarded and the cells resuspended in ready-to-use RPMI1640 by pipetting up and down ten times with a serological pipette. Cell density was determined with a Via-1 Cassette on a Nucleocounter NC 3000. The required amount of cells was first diluted 1:10 in ready-to-use RPMI; cells pipetted five times up-down with a serological pipette; and the 1:10 solution added to the final volume needed for the whole assay setup. Cells were mixed again by pipetting up and down twenty times with a serological pipette. The cell density used for the experiment was of 140 cells/ml.
Seeding. Cells were seeded row-wise in 12-well plates, while triplicates were treated column-wise (i.e. all the first rows were seeded first, then the second rows, and finally the third rows). One and a half ml cell suspension solution (a total of 210 cells) were added per well.
Treatment. Compound stock solutions were prepared at a concentration of 30 mM in 50% DMSO/50% water; and diluted in the same solution so that the volume added to the wells was of 2.5 μl and the final DMSO well concentration of 0.08%. Untreated cells (negative controls) were incubated in a) medium only; and b) 0.08% DMSO. […] The plates were swirled gently after addition of the compounds and the cells incubated for nine days at 37° C. Culture incubation solutions were replaced after five days.
Staining. Colonies were washed twice with ice-cold DPBS and fixed on ice with 1 ml ice-cold 10% methanol solution for 30 min. The methanol solution was removed and colonies incubated with 0.1% Crystal Violet/DBPS for 20 min at room temperature. The wells were rinsed consecutively with 1.5, 1, and 0.5 ml water at room temperature and let dry.
Destaining and data evaluation. […] Absorbance was measured at 600 nm with a SpectraMax M2e reader (Molecular Devices, Sunnyvale, CA, USA). Percentage of colony formation was calculated from the average of the well triplicates compared to the untreated DMSO controls after subtraction of blank values. […]

Test [4] concerns HCT116. Briefly: 9-day colony survival assay (CFA). The class given is cell-based. The conditions noted are these: Homo sapiens, HCT-116, 216 h, HCT116 (colon), read-out: GI50 (50% growth inhibition).
Test [5] concerns hormone-refractory DU-145 human prostate cancer cells. Description: Cell-derived xenograft mouse model for prostate cancer (DU-145 CDX). The class given is in vivo. The conditions noted are these: 3 mg/kg, p.o. QD × 4 weeks. As to the method:
Male BALB/c nude mice (7-9 weeks of age) were injected with hormone-refractory DU-145 human prostate cancer cells. The cells were inoculated subcutaneously into the left flank of 48 mice. When tumors reached a mean volume of approximately 105 mm^3, mice were randomly assigned to eight treatment groups of each six mice (TABLE 12). Body weights were measured three times weekly prior to the initiation of dosing and daily thereafter. Tumor burden was assessed by caliper measurement three times weekly. Dosing breaks were applied when tolerability issues arose (body weight loss>10%). The study was terminated 4 weeks post first dosing. The experiment was performed in the Crown Bioscience Ltd. (Beijing) testing facility (Ground Floor, Light Muller Building, Changping Sector of Zhongguancun Scientific Park, No. 21 Huoju Road, Changping District, Beijing, CHIN).

The test system of test [6] is MKN45 human gastric adenocarcinoma cells. Description: Cell-derived xenograft mouse model for gastric cancer (MKN45 CDX). The following applies: 6 mg/kg, QD, p.o. The class given is in vivo. As to the method: Female BALB/c nude mice (8-9 weeks of age) were injected with MKN45 human gastric adenocarcinoma cells. The cells were inoculated subcutaneously into the left flank of 48 mice. When tumors reached a mean volume of approximately 103 mm^3, mice were randomly assigned to eight treatment groups of each six mice (TABLE 16). Body weights were measured three times weekly prior to the initiation of dosing and daily thereafter. Tumor burden was assessed by caliper measurement twice weekly. Dosing breaks were applied when tolerability issues arose (body weight loss>10%). The study was terminated four weeks post first dosing. The experiment was performed in the Crown Bioscience Ltd. (Beijing) testing facility (Ground Floor, Light Muller Building, Changping Sector of Zhongguancun Scientific Park, No. 21 Huoju Road, Changping District, Beijing, CHN).

For the compound `CC(C)C[C@@H]1NCCN([C@@H](CC(C)C)C(=O)N2CCC3(C[C@@H]2C)OCC(CN2CCC(C)CC2)CO3)C1=O` (stereo partly drawn) [Compound 253, (3S)-1-[(2S)-4-methyl-1-oxo-1-[(3s,6s,8S)-8-methyl-3-[(4-methylpiperidin-1-yl)methyl]-1,5-dioxa-9-azaspiro[5.5]undec-an-9-yl]pentan-2-yl]-3-(2-methylpropyl)piper-azin-2-one (^≠), isomer Z], the GI50 in test [1] came to 4 nM; in test [2], 7 nM; in test [3], 4.5 nM; in test [4] it was 2 nM. In addition, in test [5], the “Tumor Size day 35 (Mean ± SEM)” value is 480 ± 49 mm^3. The “T/C (tumor-to-control ratio, volume/volume)” value in test [5] (day 35) was 69.3%. Besides, the “Tumor Size day 29” value in test [6] (MKN45 CDX, female BALB/c nude mice, Mean ± SEM) is 506.5 ± 71.0 mm^3. Also, the T/C in test [6] (day 29, tumor-to-control ratio (volume/volume)) is 42.6%.
